The results in this text go back to patent publication US20260209249A1, “NOVEL TRICYCLIC COMPOUND AS KRAS G12D INHIBITOR, AND USE THEREOF” (SK Biopharmaceuticals Co., priority 2022, published 2026).

SMILES strings stand for the structures.

For assay [1], the target named is T1, GDP-KRAS G12D mutant protein (Homo sapiens, UniProt P01116, G12D).
T1 construct: purchased Daegu Gyeongbuk Medical Innovation Foundation (DGMIF), made to order
Kind of assay: Differential scanning fluorimetry (DSF) binding affinity to GDP-KRAS G12D mutant protein. The note with it: DSF thermal shift, 10 μM compound, 4 μg KRAS protein. How it is done:
(§1) Test Example 1: Measurement of Binding Affinity to KRAS G12D Mutant Protein The binding affinities of the compounds according to one embodiment of the present application to the KRAS G12D mutant protein were evaluated using differential scanning fluorimetry (DSF). Differential scanning fluorimetry (DSF) is a method used to study the stability of a protein upon binding to a compound. The experiment can be performed using a real-time PCR (RT-PCR) instrument, and is commonly employed as a screening technique for small-molecule compounds targeting specific proteins. As the temperature increases, folded proteins begin to unfold, during which a hydrophobic dye such as SYPRO Orange binds to the exposed hydrophobic regions of the protein, resulting in a measurable increase in fluorescence intensity (maximum absorption at 470 nm and maximum emission at 570 nm). Protein-compound binding is determined by the difference in the melting temperature (Tm) of the protein in the presence of the compound compared to the Tm in the absence of the compound, expressed as ΔTm. The binding affinity to the KRAS G12D mutant protein was measured using the Protein Thermal Shift Dye kit (#4461146, Applied Biosystems). The GDP-KRAS G12D mutant protein and GppNHp-KRAS G12D mutant protein used in the experiment were recombinant proteins synthesized by the Daegu Gyeongbuk Medical Innovation Foundation (DGMIF) upon request. The analysis of binding between the compound and the KRAS G12D mutant protein was performed according to the following reaction recipe: each test sample contained 4 μg of KRAS protein, 10 μM of the compound, and 2×SYPRO Orange dye. For the GDP-KRAS G12D protein samples, the buffer provided with the Protein Thermal Shift Dye kit was used, while for the GppNHp-KRAS G12D protein samples, 50 mM HEPES (pH 7.5) buffer was used. For the protein-compound binding reaction, the compound was added to the KRAS G12D mutant protein and reacted at room temperature for 30 minutes, followed by the addition of 2×SYPRO Orange dye. The temperature was increased to 25° C.-99° C. (0.05° C./s) using QuantStudiol RT-PCR instrument (Applied Biosystems), and fluorescence was measured using a ROX reporter with filters of 580±10 nm (excitation)/623±14 nm (emission). The measurements obtained at a compound concentration of 10 μM were analyzed using the Protein Thermal Shift Software program (version v1.4, Thermo Fisher Scientific), and the ΔTm (° C.) values, which indicate the binding affinity of the compound to the KRAS G12D mutant protein, were calculated. The DSF measurement results for the compounds according to one embodiment of the present application with respect to the KRAS G12D mutant protein are shown in Table 2.
For orientation: Differential scanning fluorimetry follows unfolding on heating by fluorescence.

For assay [2], the target named is T2, GppNHp-KRAS G12D mutant protein (Homo sapiens, UniProt P01116, G12D).
T2 construct: purchased Daegu Gyeongbuk Medical Innovation Foundation (DGMIF), made to order
Kind of assay: Differential scanning fluorimetry (DSF) binding affinity to GppNHp-KRAS G12D mutant protein. The note with it: DSF thermal shift, 10 μM compound, 4 μg KRAS protein, 50 mM HEPES (pH 7.5). How it is done:
as §1

Consider `C#Cc1c(F)ccc2cc(N)cc(-c3cc4nc(OC[C@@]56CCCN5CC(=C(F)F)C6)nc(N5[C@@H]6CC[C@H]5CNC6)c4n4ccnc34)c12` [Example 108, 4-(1-((1 R,5S)-3,8-diazabicyclo[3.2.1]octan-8-yl)-3-(((S)-2-(difluoromethylene)tetrahydro-1H-pyrrolizin-7a(5H)-yl)methoxy)imidazo[1′,2′:1,6]pyrido[3,2-d]pyrimidin-6-yl)-5-ethynyl-6-fluoronaphthalen-2-amine], for which the “GDP-KRAS G12D (ΔTmD, ° C.)” value in assay [1] amounted to 8.47 °C. In addition, in assay [2], the “GppNHp-KRAS G12D (ΔTmD, ° C.)” value amounted to 5.36 °C.
The corresponding values for `Cc1cc2c(o1)c(-c1nc(N)cc(C)c1C(F)(F)F)c(F)c1nc(OC[C@@]34CCCN3C[C@H](F)C4)nc(N3C[C@H]4CC[C@@H](C3)N4)c12` [Example 60, 6-(1-((1R,5S)-3,8-diazabicyclo[3.2.1]octan-3-yl)-5-fluoro-3-(((2R,7aS)-2-fluorotetrahydro-1H-pyrrolizin-7a(5H)-yl)methoxy)-8-methylfuro[3,2-n]quinazolin-6-yl)-4-methyl-5-(trifluoromethyl)pyridin-2-amine] are 0.87 °C and 1.61 °C.
The corresponding values for `Nc1nc2c(-c3cc4nc(OC[C@@]56CCCN5C[C@H](F)C6)nc(N5C[C@H]6CC[C@@H](C5)N6)c4n4ccnc34)ccc(F)c2s1` [Example 25, 4-(1-((1R,5S)-3,8-diazabicyclo[3.2.1]octan-3-yl)-3-(((2R,7aS)-2-fluorotetrahydro-1H-pyrrolizin-7a(5H)-yl)methoxy)imidazo[1′,2′:1,6]pyrido[3,2-d]pyrimidin-6-yl)-7-fluorobenzo[d]thiazol-2-amine] are 0.27 °C and −0.17 °C.
The corresponding values for `C#Cc1c(F)ccc2cc(O)cc(-c3c(F)c4nc(OC[C@@]56CCCN5CC(=C(F)F)C6)nc(N5CC6CCC(C5)N6)c4c4cn(C)nc34)c12` [Example 92, 4-(9-((1R,5S)-3,8-diazabicyclo[3.2.1]octan-3-yl)-7-(((S)-2-(difluoromethylene)tetrahydro-1H-pyrrolizin-7a(5H)-yl)methoxy)-5-fluoro-2-methyl-2H-pyrazolo[4,3-]quinazolin-4-yl)-5-ethynyl-6-fluoronaphthalen-2-ol] are 17.61 °C and 13.02 °C.
As for `C#Cc1c(F)ccc2cc(O)cc(-c3c(F)c4nc(OC[C@@]56CCCN5CC(=C(F)F)C6)nc(N5CC6CCC(C5)N6)c4c4cc(C)oc34)c12` [Example 66, 4-(1-((1R,5S)-3,8-diazabicyclo[3.2.1]octan-3-yl)-3-(((S)-2-(difluoromethylene)tetrahydro-1H-pyrrolizin-7a(5H)-yl)methoxy)-5-fluoro-8-methylfuro[3,2-n]quinazolin-6-yl)-5-ethynyl-6-fluoronaphthalen-2-ol], the “GDP-KRAS G12D (ΔTmD, ° C.)” value in assay [1] was 14.49 °C. Moreover, the “GppNHp-KRAS G12D (ΔTmD, ° C.)” value in assay [2] came to 9.45 °C.
The corresponding values for `Cc1cc2c(o1)c(-c1cc(N)ccc1C(F)(F)F)c(F)c1nc(OC[C@@]34CCCN3C[C@H](F)C4)nc(N3CC4CCC(C3)N4)c12` [Example 49, 3-(1-((1R,5S)-3,8-diazabicyclo[3.2.1]octan-3-yl)-5-fluoro-3-(((2R,7aS)-2-fluorotetrahydro-1H-pyrrolizin-7a(5H)-yl)methoxy)-8-methylfuro[3,2-n]quinazolin-6-yl)-4-(trifluoromethyl)aniline] are 1.92 °C and 0.73 °C.
With `C#Cc1c(F)ccc2cc(O)cc(-c3c(F)c4nc(OC[C@@]56CCCN5CC(=C(F)F)C6)nc(N5CC6CCC(C5)N6)c4c4cn(C)nc34)c12` [Example 91, 4-(9-((1R,5S)-3,8-diazabicyclo[3.2.1]octan-3-yl)-7-(((S)-2-(difluoromethylene)tetrahydro-1H-pyrrolizin-7a(5H)-yl)methoxy)-5-fluoro-2-methyl-2H-pyrazolo[4,3-n]quinazolin-4-yl)-5-ethynyl-6-fluoronaphthalen-2-ol], the “GDP-KRAS G12D (ΔTmD, ° C.)” value in assay [1] is −0.16 °C. In assay [2], the “GppNHp-KRAS G12D (ΔTmD, ° C.)” value was −0.45 °C.
On to `C#Cc1c(F)ccc2cc(O)cc(-c3cc4nc(OCC5(CN6CCCC6)CC5)nc(N5C[C@H]6CC[C@@H](C5)N6)c4n4ccnc34)c12` [Example 35, 4-(1-((1R,5S)-3,8-diazabicyclo[3.2.1]octan-3-yl)-3-((1-(pyrrolidin-1-ylmethyl)cyclopropyl)methoxy)imidazo[1′,2′:1,6]pyrido[3,2-d]pyrimidin-6-yl)-5-ethynyl-6-fluoronaphthalen-2-ol], for which the “GDP-KRAS G12D (ΔTmD, ° C.)” value in assay [1] was determined as 8.91 °C. In assay [2], the “GppNHp-KRAS G12D (ΔTmD, ° C.)” value was 2.68 °C.
As for `C#Cc1c(F)ccc2cccc(-c3cc4nc(OC[C@@]56CCCN5C/C(=C\F)C6)nc(N5C[C@H]6CC[C@@H](C5)N6)c4c4cn(C)nc34)c12` [Example 78, 9-((1 R,5S)-3,8-diazabicyclo[3.2.1]octan-3-yl)-4-(8-ethynyl-7-fluoronaphthalen-1-yl)-7-(((S,Z)-2-(fluoromethylene)tetrahydro-1H-pyrrolizin-7a(5H)-yl)methoxy)-2-methyl-2H-pyrazolo[4,3-n]quinazoline], the “GDP-KRAS G12D (ΔTmD, ° C.)” value in assay [1] was determined as 5.46 °C. For the same compound, in assay [2], the “GppNHp-KRAS G12D (ΔTmD, ° C.)” value amounted to 1.17 °C.
The like results for `C#Cc1c(F)ccc2cc(N)cc(-c3cc4nc(OCC5(CN6CCC7(CC6)CC7(F)F)CC5)nc(N5C[C@H]6CC[C@@H](C5)N6)c4c4cn(C)nc34)c12` [Example 76, 4-(9-((1 R,5S)-3,8-diazabicyclo[3.2.1]octan-3-yl)-7-((1-((1,1-difluoro-6-azaspiro[2.5]octan-6-yl)methyl)cyclopropyl)methoxy)-2-methyl-2H-pyrazolo[4,3-f]quinazolin-4-yl)-5-ethynyl-6-fluoronaphthalen-2-amine] were, in that order, 5.17 °C and 1.47 °C.
In the case of `Cc1cc2c(o1)c(-c1nc(N)ccc1C(F)(F)F)c(F)c1nc(OC[C@@]34CCCN3C[C@H](F)C4)nc(N3C[C@H]4CC[C@@H](C3)N4)c12` [Example 50, 6-(1-((1R,5S)-3,8-diazabicyclo[3.2.1]octan-3-yl)-5-fluoro-3-(((2R,7aS)-2-fluorotetrahydro-1H-pyrrolizin-7a(5H)-yl)methoxy)-8-methylfuro[3,2-f]quinazolin-6-yl)-5-(trifluoromethyl)pyridin-2-amine], the “GDP-KRAS G12D (ΔTmD, ° C.)” value in assay [1] is 0.58 °C. Further, the “GppNHp-KRAS G12D (ΔTmD, ° C.)” value in assay [2] was −0.31 °C.
Regarding `Nc1nc2c(-c3cc4nc(OC[C@@]56CCCN5C[C@H](F)C6)nc(N5[C@@H]6CC[C@H]5CNC6)c4n4ccnc34)ccc(F)c2s1` [Example 15, 4-(1-((1R,5S)-3,8-diazabicyclo[3.2.1]octan-8-yl)-3-(((2R,7aS)-2-fluorotetrahydro-1H-pyrrolizin-7a(5H)-yl)methoxy)imidazo[1′,2′:1,6]pyrido[3,2-d]pyrimidin-6-yl)-7-fluorobenzo[d]thiazol-2-amine], the “GDP-KRAS G12D (ΔTmD, ° C.)” value in assay [1] was −0.01 °C. Moreover, the “GppNHp-KRAS G12D (ΔTmD, ° C.)” value in assay [2] stood at 0.28 °C.
The like results for `Cc1cc2[nH]ncc2c(-c2cc3nc(OC[C@@]45CCCN4C[C@H](F)C5)nc(N4C[C@H]5CC[C@@H](C4)N5)c3n3ccnc23)c1C(F)(F)F` [Example 26, 1-((1 R,5S)-3,8-diazabicyclo[3.2.1]octan-3-yl)-3-(((2R,7aS)-2-fluorotetrahydro-1H-pyrrolizin-7a(5H)-yl)methoxy)-6-(6-methyl-5-(trifluoromethyl)-1H-indazol-4-yl)imidazo[1′,2′:1,6]pyrido[3,2-d]pyrimidine] were, in that order, 4.12 °C and 1.01 °C.
